# Key:
# [1] = tested on: rat mammary epithelium; assay: Bioassay on proliferating/differentiating effects in the rat mammary epithelium (whole mount staining, terminal and alveolar endbuds); type: in vivo
# From the text: The object of this test is to evaluate the effect of progestins on the development of the mammary gland, in particular on the formation of terminal end-buds in the mammary gland in estrogen primed rats. Progestins together with other hormones (prolactin, estrogens, glucocorticoids, growth hormones etc.) induce proliferation and differentiation of the mammary glandular epithelium. In particular, they are involved in the morphogenesis of alveolar and terminal end buds, the sites of milk protein production and secretion into the ductal lumen.
# In order to determine the effects of test progestins according to the present invention, in particular compound ((+)-1), in mammary gland differentiation and proliferation, premature female rats (Wistar Han, SPF) are ovariectomized at the age of 21 days, 4 to 6 days before treatment start. The animals are treated for 6 days with standard estrogen (estrone (E1), 70 μg/kg) and the test progestin ((+)-1) (application volume: 0.1 ml/50 g body weight; vehicle: benzylbenzoate/castor oil (1+4 v/v); subcutaneous). Control groups are e.g.: vehicle, estrone without progestin, estradiol together with a known progestin, e.g. R5020 (promegestone). After the 6-day treatment the animals are killed with carbon dioxide.
# For the whole mount staining, animals are shaved in the left abdominal inguinal mammary region, which is cut from the body together with the skin. For the histological/immunohistochemical analyses the right abdominal inguinal mammary gland is cut from the body together with the connective-tissue adhered thereto and fixed in 3.7% formalin in PBS (phosphate buffer saline; without Ca^2+/Mg^2+).
# The preparations are fixed over night in alcohol-formalin according to the method of Tellyesniczky (see below). Then the mammary gland tissue and subcutis adhered thereto are stripped from the cutis and the preparations are again fixed over night. The further steps are as follows: ethanol 70%: 1.5 hours; acetone: 3×1.5 hours; acetone: over night; isopropanol: 1.5 hours; ethanol 96%: 2 hours; hematoxylin-iron: 3 hours; VE water: first rinse the preparations and then 2×0.5 hours; ethanol 70%: over night; ethanol 80%: 1.5 hours; ethanol 96%: 1.5 hours; isopropanol: 1.5 hours. The preparations are then moved to petri dishes and left in toluene for approximately 1 hour, i.e. until they have stopped to swim up. Then the preparations are treated with cedarwood oil (Merck, no. 1.06965). The incubation times above are minimum times and can be extended. In particular, incubation in ethanol 70% after fixation can be extended to at least 2.5 weeks.
# Preparation of the solutions necessary for the whole mount staining: • a) Alcohol-formalin according to Tellyesniczky: formaldehyde 37%: 81.8 ml, ethanol 70%: 1636 ml, glacial acetic acid (to be added shortly before use): 81.8 ml (total: 1800 ml). • b) Hematoxylin mother solution: Hematoxylin (Merck, no. 1.15938): 10 g, ethanol 96%: 100 ml. The solution must stand for 48 hours at 37° C. before use. […]
# By means of a 40-fold magnification, the terminal end buds near the nipple in direction of the tail are counted. […] For well-differentiated preparations this area may be reduced, with at least 250 buds to be counted. After counting, the number of end buds per 1 mm^2 is calculated.
# The number of terminal and alveolar endbuds is counted per mm^2 +/− standard deviation (SD). […]
# [2] = target: T1, estrogen receptor-α (ERα) (Homo sapiens, UniProt P03372); assay: Binding to the estrogen receptor-α in vitro
# T1 sequence (P03372 1-595): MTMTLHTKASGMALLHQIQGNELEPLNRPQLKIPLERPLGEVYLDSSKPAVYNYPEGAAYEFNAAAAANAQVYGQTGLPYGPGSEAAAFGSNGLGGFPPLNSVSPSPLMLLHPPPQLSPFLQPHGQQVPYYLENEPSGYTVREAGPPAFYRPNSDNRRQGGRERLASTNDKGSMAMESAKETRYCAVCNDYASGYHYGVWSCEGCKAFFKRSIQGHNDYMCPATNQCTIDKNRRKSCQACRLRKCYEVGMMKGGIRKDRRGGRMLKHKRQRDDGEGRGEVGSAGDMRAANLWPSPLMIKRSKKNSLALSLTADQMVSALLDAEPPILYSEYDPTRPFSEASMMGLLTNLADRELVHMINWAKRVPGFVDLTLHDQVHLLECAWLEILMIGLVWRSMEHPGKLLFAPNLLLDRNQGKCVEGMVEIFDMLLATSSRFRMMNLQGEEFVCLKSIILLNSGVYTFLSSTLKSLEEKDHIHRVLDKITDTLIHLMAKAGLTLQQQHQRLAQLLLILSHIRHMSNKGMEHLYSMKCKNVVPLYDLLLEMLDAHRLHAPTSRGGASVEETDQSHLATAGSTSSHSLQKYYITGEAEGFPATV
# [3] = tested on: prostate weight and seminal vesicle of orchidectomized rats; assay: Androgenic/anti-androgenic activity in vivo in orchidectomized rats (prostate weight, seminal vesicle); parameters: species or system rat
# From the text: The absence of androgenic as well as anti-androgenic activity in vivo was confirmed by tests performed with orchidectomized rats (change in prostate weight and in the seminal vesicle).
compound,measurement,setting,value
"O=C1OCc2cc(NC(=O)C(O)(CC3(c4cc(C(F)(F)F)ccc4F)CC3)C(F)(F)F)ccc21 (single isomer, unassigned; (+)) [((+)-1), (+)-5-{2-hydroxy-3-[1-(2-fluoro-5-trifluoromethylphenyl)-cyclopropyl]-2-trifluoromethyl-propionylamino}-phthalide]",Threshold value for the induction of terminal and alveolar endbuds,[1]; FIG. 3,100 µg/kg/day
same,"Terminal and alveolar end bud formation, result in words",[1]; at doses where pregnancy is fully maintained,no effects on terminal and alveolar end bud formation can be observed
same,"Mammary gland, whole mount staining (rat) [threshold value]",[1]; induction of terminal and alveolar endbuds,0.1 mg/kg/day
same,"Mammary gland, whole mount staining, factor compared to R5020",[1]; median of three tests,ca. 1
same,Dissociation in favor of uterotropic activity (uterus versus mammary gland),[1]; pregnancy maintenance versus mammary gland,at least six fold
same,Affinity for the estrogen receptor-α (ERα),[2],negligible affinity
same,Androgenic and anti-androgenic activity in vivo,[3],no androgenic as well as no anti-androgenic activity in vivo
